Like-named read-outs stand apart in the source and are kept apart here.
Tests used:
[1] = system: cell lines HT-1080 (IDH1^R132C); assay: Cellular assay: inhibition of 2HG production, LC-MS/MS; format: cell-based; settings: Homo sapiens, 72 hr incubation, 2-HG in cell culture media, read-out: HT1080 2-HG IC50
Procedure: Cell lines HT-1080 (commercially available) are maintained in E-MEM 10% FCS and incubated at 37° C. in a humidified 5% CO2 atmosphere.
Cells are seeded into 96 well black flat bottom plates at a density of 500 cells/well in 100 μL complete medium. After 24 hr the medium is replaced with 200 μL of fresh medium and compounds (dissolved into DMSO) are administrated to the cells using D300E Digital Dispenser (Tecan).
After 72 hr of incubation 100 μL from each well are collected and used for 2HG (R(−)-2-hydroxyglutarate) quantification. Levels of 2-HG in cell culture media are determined by LC-MS/MS. Cell supernatants (100 μL/well) are treated with 1 M aqueous trichloroacetic acid containing 130 μM of the internal standard 2-HG-d3 (20 μL/well) in a 96-well plate. The plates are sealed, mildly vortexed for 60 minutes, centrifuged at 4,000 RPM for 15 minutes, placed in a refrigerated autosampler taking care not to shake them, and aliquots of the upper part of the samples are directly injected in the chromatographic system. Calibration standards are obtained by ten folds dilution of aqueous 2-HG stock solutions with blank cell culture medium and denatured exactly in the same way as described above for samples. Samples and standards are assayed for 2-HG by reversed phase chromatography on a C18 column eluted with aqueous 0.15% formic acid and briefly washed with 90% methanol at the end of the run. 2-HG is determined by negative ion electrospray ionization with the internal standard method on a triple quadrupole mass spectrometer monitoring the MRM transitions 147>129 (2-HG) and 150>132 (2-HG-d3).
2-HG inhibition was calculated by comparing treated versus control data using Assay Explore (Symyx) software, with IC50 determined using a sigmoidal fitting algorithm.

IDH1^R132C = IDH1^R132C (Homo sapiens, UniProt O75874, R132C); assay: NADPH depletion assay (diaphorase/resazurin), IDH1 R132C; format: biochemical
Chain of IDH1^R132C (O75874 whole entry R132C, canonical isoform): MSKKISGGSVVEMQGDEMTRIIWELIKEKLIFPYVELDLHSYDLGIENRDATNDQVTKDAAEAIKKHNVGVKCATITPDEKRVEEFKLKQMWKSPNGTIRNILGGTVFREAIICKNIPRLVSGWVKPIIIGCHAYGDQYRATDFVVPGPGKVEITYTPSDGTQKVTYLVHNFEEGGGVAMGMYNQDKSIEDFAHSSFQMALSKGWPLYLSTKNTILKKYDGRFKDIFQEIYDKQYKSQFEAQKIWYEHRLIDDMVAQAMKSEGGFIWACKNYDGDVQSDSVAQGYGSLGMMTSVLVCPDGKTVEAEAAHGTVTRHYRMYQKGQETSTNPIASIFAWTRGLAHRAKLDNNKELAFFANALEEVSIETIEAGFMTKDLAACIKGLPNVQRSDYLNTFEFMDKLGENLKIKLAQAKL
Procedure: IDH mutated enzyme activity converting alpha-ketoglutarate to 2-hydroxyglutaric acid is measured using a NADPH depletion assay. In the assay the remaining cofactor is measured at the end of the reaction with the addition of a catalytic excess of diaphorase and resazurin, to generate a fluorescent signal in proportion to the amount of NADPH remaining. IDH1 WT enzyme as well as mutated isoforms IDH1^R132H, IDH1^R132C, and IDH2^R172K enzymes are commercially available proteins (see e.g. Sino Biological, Abcam, Active Motif or Creative BioMart).
IDH1^R132H homodimer enzyme are diluted to 8 nM, in 10 μL of Assay Buffer (150 mM NaCl, 50 mM Tris-HCl pH 7.6, 10 mM MgCl2, 0.001% Triton X-100, 4 mM β-mercaptoethanol); 0.2 μL of test compound, previously serially diluted 1 to 3, >10 experimental points from 1 mM in DMSO, is added and the mixture is incubated for 15 minutes at room temperature. The reaction is started with the addition of 10 μL of Substrate Mix (12 μM NADPH, 3.4 mM alpha-ketoglutarate in Assay Buffer) and the mixture is incubated for 60 minutes at room temperature. The reaction is terminated with the addition of 5 μl of Detection Buffer (100 μg/mL diaphorase, 30 μM resazurin, in IX Assay Buffer), and is incubated for 15 minutes before reading on a ViewLux as platereader at Ex544/Em590.
Compounds are assayed for their activity against IDH1^R132C following the same assay as above with the following modifications: IDH1^R132C and alpha-ketoglutarate final concentrations in the Assay Buffer is 2 nM and 0.14 mM, respectively.

[2] = IDH1^R132C 2 nM, alpha-ketoglutarate 0.14 mM, read-out: IDH1^R132C IC50

Row | Structure (SMILES) | IC50 [1] | IC50 (IDH1^R132C; [2]) | IC50 (IDH1^R132C)
1 | C=CC(=O)N1CCN(C(C)(C)c2ccc([C@H](C)Nc3ncc4ccc(=O)n(C(C)C)c4n3)cc2)CC1 [cpd 2, 2-{[(1S)-1-{4-[2-(4-acryloylpiperazin-1-yl)propan-2-yl]phenyl}ethyl]amino}-8-(propan-2-yl)pyrido[2,3-d]pyrimidin-7(8H)-one] | 4.9 nM | 12 nM | 
2 | C=CC(=O)N1CCN(C2(c3ccc([C@H](C)Nc4ncc5ccc(=O)n(C(C)C)c5n4)cc3)COC2)CC1 [cpd 3, 2-{[(1S)-1-{4-[3-(4-acryloylpiperazin-1-yl)oxetan-3-yl]phenyl}ethyl]amino}-8-(propan-2-yl)pyrido[2,3-d]pyrimidin-7(8H)-one] | 13 nM | 27.2 nM | 
3 | C=CC(=O)N1CCN(C2(c3ccc([C@H](C)Nc4ncc5ccc(=O)n(C(C)C)c5n4)cc3)CCN(C(C)=O)CC2)CC1 [cpd 6, 2-{[(1S)-1-{4-[1-acetyl-4-(4-acryloylpiperazin-1-yl)piperidin-4-yl]phenyl}ethyl]amino}-8-(propan-2-yl)pyrido[2,3-d]pyrimidin-7(8H)-one] | 5.2 nM | 5.9 nM | 
4 | C=C(CN1CCN(C2(c3ccc([C@H](C)Nc4ncc5ccc(=O)n(C(C)C)c5n4)cc3)CCOCC2)CC1)C(=O)O [cpd 7, 2-{[4-(4-{4-[(1S)-1-{[7-oxo-8-(propan-2-yl)-7,8-dihydropyrido[2,3-d]pyrimidin-2-yl]amino}ethyl]phenyl}tetrahydro-2H-pyran-4-yl)piperazin-1-yl]methyl}prop-2-enoic acid] | 562 nM | 40.2 nM | 
5 | CCC(=O)N1CCN(C2(c3ccc([C@H](C)Nc4ncc5ccc(=O)n(C(C)C)c5n4)cc3)CCOCC2)CC1 [cpd 8, 2-{[(1S)-1-{4-[4-(4-propanoylpiperazin-1-yl)tetrahydro-2H-pyran-4-yl]phenyl}ethyl]amino}-8-(propan-2-yl)pyrido[2,3-d]pyrimidin-7(8H)-one] | 1930 nM | 1320 nM | 
6 | C=CC(=O)N1CCN(C2(c3ccc([C@@H](C)Nc4ncc5ccc(=O)n(C(C)C)c5n4)cc3)CCOCC2)CC1 [cpd 9, 2-{[(1R)-1-{4-[4-(4-acryloylpiperazin-1-yl)tetrahydro-2H-pyran-4-yl]phenyl}ethyl]amino}-8-(propan-2-yl)pyrido[2,3-d]pyrimidin-7(8H)-one] | 67 nM | 125 nM | 
7 | C=CC(=O)N1CCN(C2(c3ccc([C@H](C)Nc4ncc5ccc(=O)n(C(C)C)c5n4)cn3)CCOCC2)CC1 [cpd 12, 2-{[(1S)-1-{6-[4-(4-acryloylpiperazin-1-yl)tetrahydro-2H-pyran-4-yl]pyridin-3-yl}ethyl]amino}-8-(propan-2-yl)pyrido[2,3-d]pyrimidin-7(8H)-one] | 34 nM | 117 nM | 
8 | C=CC(=O)N1CCN(C2(c3ccc([C@H](C)Nc4ncc5ccc(=O)n(CC)c5n4)cc3)CCOCC2)CC1 [cpd 14, 2-{[(1S)-1-{4-[4-(4-acryloylpiperazin-1-yl)tetrahydro-2H-pyran-4-yl]phenyl}ethyl]amino}-8-ethylpyrido[2,3-d]pyrimidin-7(8H)-one] | 4.8 nM | 4.4 nM | 
9 | C=CC(=O)N1CCN(C2(c3ccc([C@H](C)Nc4ncc5c(C)cc(=O)n(C6CCCC6)c5n4)cc3)CCOCC2)CC1 [cpd 15, 2-{[(1S)-1-{4-[4-(4-acryloylpiperazin-1-yl)tetrahydro-2H-pyran-4-yl]phenyl}ethyl]amino}-8-cyclopentyl-5-methylpyrido[2,3-d]pyrimidin-7(8H)-one] | 9 nM | 24.7 nM | 
10 | C=CC(=O)N1CCN(C2(c3ccc([C@H](C)Nc4ncc5ccc(=O)n(C(C)C)c5n4)cc3)CCCC2)CC1 [cpd 16, 2-{[(1S)-1-{4-[1-(4-acryloylpiperazin-1-yl)cyclopentyl]phenyl}ethyl]amino}-8-(propan-2-yl)pyrido[2,3-d]pyrimidin-7(8H)-one] | 0.3 nM | 1.3 nM | 
11 | C=CC(=O)N1CCN(C2(c3ccc([C@H](C)Nc4ncc5ccc(=O)n(C(C)C)c5n4)cc3)CCOC2)CC1 (stereo partly drawn) [cpd 17, 2-{[(1S)-1-{4-[3-(4-acryloylpiperazin-1-yl)tetrahydrofuran-3-yl]phenyl}ethyl]amino}-8-(propan-2-yl)pyrido[2,3-d]pyrimidin-7(8H)-one] | 4.9 nM | 25.7 nM | 
12 | C=CC(=O)N1CCN(C2(c3ccc([C@H](C)Nc4nc(N)c5ccc(=O)n(C(C)C)c5n4)cc3)CCOCC2)CC1 [cpd 19, 2-{[(1S)-1-{4-[4-(4-acryloylpiperazin-1-yl)tetrahydro-2H-pyran-4-yl]phenyl}ethyl]amino}-4-amino-8-(propan-2-yl) pyrido[2,3-d]pyrimidin-7(8H)-one] | 3 nM | 3.1 nM | 
13 | C=CC(=O)N1CCN(C2(c3ccc([C@H](C)Nc4ncc5ccc(=O)n(C(C)C)c5n4)cc3)CCCCC2)CC1 [cpd 20, 2-{[(1S)-1-{4-[1-(4-acryloylpiperazin-1-yl)cyclohexyl]phenyl}ethyl]amino}-8-(propan-2-yl)pyrido[2,3-d]pyrimidin-7(8H)-one] | 1 nM |  | 1 nM
14 | CC(C)n1c(=O)ccc2cnc(N[C@@H](C)c3ccc(C4(N5CCN(C(=O)CCl)CC5)CCOCC4)cc3)nc21 [cpd 22, 2-{[(1S)-1-(4-{4-[4-(chloroacetyl)piperazin-1-yl]tetrahydro-2H-pyran-4-yl}phenyl)ethyl]amino}-8-(propan-2-yl) pyrido[2,3-d]pyrimidin-7(8H)-one] | 121 nM | 8 nM | 
15 | CC(C)n1c(=O)ccc2cnc(N[C@@H](C)c3ccc(C4(N5CCN(C(=O)CCCl)CC5)CCOCC4)cc3)nc21 [cpd 23, 2-{[(1S)-1-(4-{4-[4-(3-chloropropanoyl)piperazin-1-yl]tetrahydro-2H-pyran-4-yl}phenyl)ethyl]amino}-8-(propan-2-yl) pyrido[2,3-d]pyrimidin-7(8H)-one] | 122 nM | 1460 nM | 
16 | C=CC(=O)N1CCN(C2(c3ccc([C@H](C)Nc4ncc5c(n4)N(CC)C(=O)OC5)cc3)CCOCC2)CC1 [cpd 24, 7-{[(1S)-1-{4-[4-(4-acryloylpiperazin-1-yl)tetrahydro-2H-pyran-4-yl]phenyl}ethyl]amino}-1-ethyl-1,4-dihydro-2H-pyrimido[4,5-d][1,3]oxazin-2-one] | 2.1 nM | 3 nM | 
17 | C=CC(=O)N1CC(N(C)C2(c3ccc([C@H](C)Nc4ncc5ccc(=O)n(C(C)C)c5n4)cc3)CCOCC2)C1 [cpd 28, 2-{[(1S)-1-(4-{4-[(1-acryloylazetidin-3-yl)(methyl)amino]tetrahydro-2H-pyran-4-yl}phenyl)ethyl]amino}-8-(propan-2-yl) pyrido[2,3-d]pyrimidin-7(8H)-one] | 47 nM | 26 nM | 
18 | C=CC(=O)N1CCN(C2(c3ccc(C4(Nc5ncc6ccc(=O)n(C(C)C)c6n5)CC4)cc3)CCOCC2)CC1 [cpd 30, 2-[(1-{4-[4-(4-acryloylpiperazin-1-yl)tetrahydro-2H-pyran-4-yl]phenyl}cyclopropyl)amino]-8-(propan-2-yl)pyrido[2,3-d]pyrimidin-7(8H)-one] | 7.5 nM | 48 nM | 
19 | CCC(=O)N1CCN(C2(c3ccc([C@H](C)Nc4cc5c(ccc(=O)n5C(C)C)cn4)cc3)CCC(F)(F)CC2)CC1 [cpd 67, 7-{[(1S)-1-{4-[4,4-difluoro-1-(4-propanoylpiperazin-1-yl)cyclohexyl]phenyl}ethyl]amino}-1-(propan-2-yl)-1,6-naphthyridin-2(1H)-one] |  | 32 nM | 
